Test results as given in patent US20240352013A1, “BICYCLIC FUSED PYRAZOLE DERIVATIVES FOR THE TREATMENT OF RESPIRATORY INFECTIONS INCLUDING RSV” (GEORGIA STATE UNIVERSITY RESEARCH FOUNDATION, INC., priority 2021, published 2024).
Read-outs that look alike come from different tables or passages of the source.

Columns and labels:
[1] = Cytotoxicity assay (PrestoBlue) in HEp-2 cells; format: cell-based, human; settings: human; HEp-2 cells, 48-hour incubation; max concentration tested
Procedure: (§1) To determine the effect of compound on cell metabolism, HEp-2 cells were seeded at 50% confluence in 96-well plates and were incubated with 3-fold serial dilution of compound from 5 or 50 μM as described, including positive and negative controls for normalization. After 48-hour incubation at 37° C., cells were incubated with PrestoBlue (ThermoFisher Scientific) for 1 hour at 37° C. and fluorescence measured with a H1 synergy plate reader (Biotek).
(§2) After 48-hour incubation at 37° C., cells were incubated with PrestoBlue (ThermoFisher Scientific, cat #A-13262) for 1 h at 37° C. and fluorescence measured with a H1 synergy plate reader (BioTek).

HEp-2 cells = assay: Cytotoxicity assay (PrestoBlue) in HEp-2 cells; format: cell-based, human; settings: for cytotoxicity: FIG. 24; for CC50: HEp-2 cells, 48-hour incubation, max concentration tested
Procedure: as §1, §2

recRSV-fireSMASh [2] = assay: microbe, parasite or virus in culture; format: cell-based; settings: human respiratory syncytial virus, HAE, read-out: “F1” HAE C50 (first)
recRSV-fireSMASh [3] = assay: microbe, parasite or virus in culture; format: cell-based; settings: human respiratory syncytial virus, HAE, read-out: “M4” HAE C50 (first)
recRSV-fireSMASh L1502Q = assay: microbe, parasite or virus in culture; format: cell-based; settings: human respiratory syncytial virus; recombinant recRSV-fireSMASh, HEp-2, RSV L L1502Q
recRSV-fireSMASh Y1631H = assay: microbe, parasite or virus in culture; format: cell-based; settings: human respiratory syncytial virus; recombinant recRSV-fireSMASh, HEp-2, RSV L Y1631H
recRSV-fireSMASh H1632Q = assay: microbe, parasite or virus in culture; format: cell-based; settings: human respiratory syncytial virus; recombinant recRSV-fireSMASh, HEp-2, RSV L H1632Q
[4] = test system: recRSV-mKate harboring L1502Q; format: cell-based; settings: recRSV with LL1502Q relative to L WT
recRSV-mKate [5] = assay: microbe, parasite or virus in culture; format: cell-based; settings: 3D-HAE, progeny virus titers six days after infection, read-out: half-maximal effective concentration (EC50)
“F1” HAE = settings: “F1” donor primary HAE cells
“M4” HAE = settings: “M4” donor primary HAE cells
[6] = 100 μM, previous studies; cited from earlier work
recRSV-A2line19F-[mKate] = assay: In vivo efficacy in RSV-infected mice (lung viral titer); settings: for in vivo lung titer reduction in RSV-infected mice: oral gavage twice daily from 10 h post-infection, lungs 4.5 days after infection; for Lung viral load reduction (log10 TCID50/ml) relative to vehicle-treated: 50 mg/kg bid, therapeutic treatment 10 hours after infection, 4.5 days post-infection
Procedure: For efficacy studies, mice were randomly divided into groups (n=5) and infected intranasally with 5×10^5 TCID50 (25 μl per nare) of recRSV-A2line19F-[mKate] in PBS while under anesthesia with ketamine/xylazine. Treatment (compound or vehicle) was administrated at 10 h post-infection via oral gavage in a 200 μl suspension of 1% methylcellulose and administrated twice daily. Temperature and food consumption were monitored daily, body weight was determined twice daily. All animals were euthanized at 4.5 days after infection and lungs were harvested. To determine lung viral titers, lungs were weighted and homogenized with a bead beater in 300 μl PBS in 3 bursts of 20 seconds by 5-minute rest on ice after each cycle. Samples were clarified for 5 minutes at 4° C. and 20,000×g, supernatant aliquoted and stored at −80° C. before being titrated by median tissue culture infectious dose (TCID50) normalized per gram of lung tissue and per ml of lysate. RSV viral titers were determined using standard 50% tissue infective dose (TCID50) assay in HEp-2 cells and 96 well plates, with a Spearman and Karber based method using fluorescence for detection.
Mice were divided randomly into groups of 5, and infected intranasally with 500,000 TCID50 (25 μl/nare) of recRSV-mKate in Phosphate-Buffered Saline. Mice were anesthetized with ketamine/xylazine. Treatments were administrated via oral gavage in a 200 μl suspension of 1% Methylcellulose in water. Temperature and body weight were determined on a daily and twice-daily basis, respectively. Efficacy studies were terminated at peak viral replication at 4.5 days post-infection, mice were euthanized and lungs harvested and weighted. Lung viral titers were determined after tissue homogenization with a bead beater with 300 μl PBS (3 bursts of 30 seconds at 4° C., separated by 30-second rest at 4° C.). Homogenates were clarified (5 minutes at 4° C. and 20,000×g), aliquoted and stored at −80° C. until titration. Viral titers were determined by median tissue culture infectious dose (TCID50) titration, adjusted to weight (g) of lung tissue.

recRSV-mKate [7] = assay: Lung histopathology of RSV-infected mice; settings: 50 mg/kg initiated 12 hours after infection
Procedure: Mice were divided randomly into groups of 5, and infected intranasally with 500,000 TCID50 (25 μl/nare) of recRSV-mKate in Phosphate-Buffered Saline. Mice were anesthetized with ketamine/xylazine. Treatments were administrated via oral gavage in a 200 μl suspension of 1% Methylcellulose in water. Temperature and body weight were determined on a daily and twice-daily basis, respectively. Efficacy studies were terminated at peak viral replication at 4.5 days post-infection, mice were euthanized and lungs harvested and weighted.
For histopathology, mice were subjected to cervical dislocation 4.5 days after infection and lungs perfused with 10% NBF prior to extraction. Lungs were stored in 10% NBF for 24 hours, followed by incubation in 70% EtOH for two days and embedding into wax blocks, using a 21-hour alcohol-xylene-wax embedding sequence. Blocks were sectioned at ˜4 μm thickness, sections mounted onto microscopy slides, and stained with hematoxylin and eosin (H&E). Slides were examined by a board-certified veterinary pathologist, who was blinded to the treatment groups. Lesions were scored according to the following scale. […]

measles virus polymerase = measles virus polymerase (Measles virus, UniProt P12576); settings: found previously (45); cited from earlier work
[8] = orally 50 mg/kg b.i.d., starting 12 hours after infection, compared to vehicle-treated

Sequence of measles virus polymerase (P03422 whole entry): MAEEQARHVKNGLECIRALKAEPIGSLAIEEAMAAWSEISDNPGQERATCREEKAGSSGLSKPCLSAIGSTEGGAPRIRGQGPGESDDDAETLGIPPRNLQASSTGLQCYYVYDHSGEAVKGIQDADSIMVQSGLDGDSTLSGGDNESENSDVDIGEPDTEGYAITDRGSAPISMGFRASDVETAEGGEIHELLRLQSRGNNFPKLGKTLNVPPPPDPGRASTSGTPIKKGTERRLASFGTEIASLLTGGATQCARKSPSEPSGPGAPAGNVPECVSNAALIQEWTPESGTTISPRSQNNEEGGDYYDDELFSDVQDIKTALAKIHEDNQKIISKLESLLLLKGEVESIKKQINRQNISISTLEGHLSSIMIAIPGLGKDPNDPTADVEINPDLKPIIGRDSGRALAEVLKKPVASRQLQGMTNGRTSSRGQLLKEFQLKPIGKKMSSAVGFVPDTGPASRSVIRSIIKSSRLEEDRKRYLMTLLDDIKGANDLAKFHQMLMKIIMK
Sequence of measles virus polymerase (P12576 whole entry): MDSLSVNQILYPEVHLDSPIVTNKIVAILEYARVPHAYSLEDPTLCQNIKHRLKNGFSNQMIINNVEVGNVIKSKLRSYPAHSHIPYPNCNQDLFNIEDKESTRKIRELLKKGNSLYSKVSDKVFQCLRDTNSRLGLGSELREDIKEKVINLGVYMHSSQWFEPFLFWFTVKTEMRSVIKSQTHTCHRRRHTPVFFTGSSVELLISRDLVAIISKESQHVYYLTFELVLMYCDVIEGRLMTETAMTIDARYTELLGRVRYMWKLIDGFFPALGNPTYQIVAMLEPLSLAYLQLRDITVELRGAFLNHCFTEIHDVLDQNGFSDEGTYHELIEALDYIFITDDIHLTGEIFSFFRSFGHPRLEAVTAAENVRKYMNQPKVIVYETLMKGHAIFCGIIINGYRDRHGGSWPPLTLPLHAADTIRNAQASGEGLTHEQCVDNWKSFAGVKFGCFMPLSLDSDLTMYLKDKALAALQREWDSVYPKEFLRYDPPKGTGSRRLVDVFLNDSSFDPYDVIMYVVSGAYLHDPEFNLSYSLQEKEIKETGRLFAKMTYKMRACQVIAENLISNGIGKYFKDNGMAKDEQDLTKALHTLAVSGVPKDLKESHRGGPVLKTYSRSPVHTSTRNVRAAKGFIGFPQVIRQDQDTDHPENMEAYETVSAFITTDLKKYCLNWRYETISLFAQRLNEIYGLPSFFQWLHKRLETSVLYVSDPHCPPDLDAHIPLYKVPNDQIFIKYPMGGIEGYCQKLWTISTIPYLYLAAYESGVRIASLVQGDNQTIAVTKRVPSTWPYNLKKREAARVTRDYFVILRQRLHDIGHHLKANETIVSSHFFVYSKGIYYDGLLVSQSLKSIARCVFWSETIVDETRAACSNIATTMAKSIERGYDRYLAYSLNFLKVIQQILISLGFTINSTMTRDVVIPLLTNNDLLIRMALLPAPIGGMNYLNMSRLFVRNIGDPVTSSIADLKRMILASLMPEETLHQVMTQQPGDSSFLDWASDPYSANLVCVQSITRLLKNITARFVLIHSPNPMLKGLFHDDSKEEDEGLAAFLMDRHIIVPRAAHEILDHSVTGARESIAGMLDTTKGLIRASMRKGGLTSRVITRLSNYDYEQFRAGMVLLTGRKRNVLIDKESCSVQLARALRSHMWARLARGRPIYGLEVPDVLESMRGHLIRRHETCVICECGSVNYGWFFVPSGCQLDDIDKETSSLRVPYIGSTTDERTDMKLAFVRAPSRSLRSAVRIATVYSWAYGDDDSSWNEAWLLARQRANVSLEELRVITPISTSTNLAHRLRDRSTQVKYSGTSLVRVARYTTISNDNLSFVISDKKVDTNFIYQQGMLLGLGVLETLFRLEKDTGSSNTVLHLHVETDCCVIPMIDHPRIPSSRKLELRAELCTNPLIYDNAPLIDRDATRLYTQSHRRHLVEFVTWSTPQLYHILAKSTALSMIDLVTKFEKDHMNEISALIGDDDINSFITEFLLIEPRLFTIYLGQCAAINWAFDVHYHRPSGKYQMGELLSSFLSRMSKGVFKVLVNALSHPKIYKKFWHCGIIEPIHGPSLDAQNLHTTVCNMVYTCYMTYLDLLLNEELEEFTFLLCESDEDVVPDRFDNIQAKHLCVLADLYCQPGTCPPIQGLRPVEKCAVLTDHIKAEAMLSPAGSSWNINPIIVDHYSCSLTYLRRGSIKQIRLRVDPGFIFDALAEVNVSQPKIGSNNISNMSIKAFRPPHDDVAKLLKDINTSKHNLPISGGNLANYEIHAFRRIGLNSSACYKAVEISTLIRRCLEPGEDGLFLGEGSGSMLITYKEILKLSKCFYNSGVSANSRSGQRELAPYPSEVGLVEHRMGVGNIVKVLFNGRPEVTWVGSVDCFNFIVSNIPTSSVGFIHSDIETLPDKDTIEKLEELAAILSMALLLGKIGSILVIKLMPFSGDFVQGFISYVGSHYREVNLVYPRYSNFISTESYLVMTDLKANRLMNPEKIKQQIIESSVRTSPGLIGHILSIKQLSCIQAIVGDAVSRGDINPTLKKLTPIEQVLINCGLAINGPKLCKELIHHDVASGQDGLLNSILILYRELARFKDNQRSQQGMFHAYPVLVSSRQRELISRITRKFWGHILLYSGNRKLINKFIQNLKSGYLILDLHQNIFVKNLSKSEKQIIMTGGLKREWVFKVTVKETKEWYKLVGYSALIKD

SMILES | HEp-2 C50 (second) (HEp-2 cells) | EC50 (recRSV-fireSMASh [2]) | EC50 (recRSV-fireSMASh [3]) | “F1” HAE C50 (second) (“F1” HAE) | “M4” HAE C50 (second) (“M4” HAE) | in vivo lung titer reduction in RSV-infected mice (recRSV-A2line19F-[mKate]; 50 mg/kg) | reduction in lung viral load (recRSV-A2line19F-[mKate]; [8]) | CC50 (HEp-2 cells) | Lung viral load reduction (log10 TCID50/ml) relative to vehicle-treated (recRSV-A2line19F-[mKate]) | further results
COc1ccc(Cn2c3cc(=O)n(Cc4cccc(Cl)n4)c(C)c3c(=O)n2-c2ccccn2)cc1 [AVG-233] | 50 µM | 360 nM | 110 nM | 45 µM | 45 µM | 50 mg/kg: −0.44 log 10 | – | – | – | CC50 at 48 h [1]: > 45000 nM; cytotoxicity (HEp-2 cells): very low cytotoxicity; EC50 (recRSV-fireSMASh L1502Q): > 100000 nM; EC50 (recRSV-fireSMASh Y1631H): 2190 nM; EC50 (recRSV-fireSMASh H1632Q): 4420 nM; increase in EC90 [4]: > 2000 fold; EC50 (recRSV-mKate [5]; human respiratory syncytial virus, 144 h): 70 nM; effect on tissue organization and tight junction integrity (3D-HAE; 200 μM, continued multi-day exposure, ZO-1 immunostaining and TEER): no negative effect on tissue organization and tight junction integrity; effect on epithelium integrity (3D-HAE; basolateral 5 μM, RSV-infected, 3 d.p.i.): without detectable negative effect; cytotoxicity [6]: well-tolerated without any signs of cytotoxicity
COc1c(F)c(F)c(Cn2c3cc(=O)n(Cc4cccc(C(F)(F)F)n4)c(C)c3c(=O)n2-c2ncc(F)cc2F)c(F)c1F [AVG-388] | 10 µM | 130 nM | 150 nM | 10 µM | 10 µM | 50 mg/kg: −1.3 log 10 | 1.3 (±0.25) log 10 TCID50/ml | – | – | CC50 at 48 h [1]: > 45000 nM; cytotoxicity (HEp-2 cells): very low cytotoxicity; EC50 (recRSV-fireSMASh L1502Q): > 100000 nM; EC50 (recRSV-fireSMASh Y1631H): 2720 nM; EC50 (recRSV-fireSMASh H1632Q): 4810 nM; disease progression to viral pneumonia (histopathology) (recRSV-mKate [7]): prevented disease progression to viral pneumonia; vasculitis and perivascular cuffing (histopathology) (recRSV-mKate [7]): Only one animal of the AVG-388 group showed mild vasculitis and perivascular cuffing; in vivo lung titer reduction in RSV-infected mice (recRSV-A2line19F-[mKate]; 150 mg/kg): 150 mg/kg: −1.9 log 10; adverse effects (bodyweight and temperature) (recRSV-A2line19F-[mKate]; orally 150 mg/kg b.i.d.): without any signs of adverse effects; reduction in lung viral load (recRSV-A2line19F-[mKate]; orally 150 mg/kg b.i.d.): 1.9 (±0.23) log 10 TCID50/ml
COc1c(F)c(F)c(Cn2c3cc(=O)n(Cc4cccc(Cl)n4)c(C)c3c(=O)n2-c2ccccn2)c(F)c1F [AVG-389] | 5 µM | 160 nM | 70 nM | 45 µM | 45 µM | – | – | – | – | –
COc1c(F)c(F)c(Cn2c3cc(=O)n(Cc4cccc(Cl)n4)c(C)c3c(=O)n2-c2ncc(F)cc2F)c(F)c1F [AVG-390] | 45 µM | 390 nM | 250 nM | 45 µM | 45 µM | 50 mg/kg: −0.50 log 10 | slightly lower antiviral effect | > 45000 nM | −0.5 log10 TCID50/ml | –
COc1ccc(Cn2c3cc(=O)n(Cc4cccc(Cl)n4)c(C)c3c(=O)n2-c2ncc(F)cc2F)cc1 [AVG-391] | 45 µM | 350 nM | 300 nM | 45 µM | 45 µM | – | – | – | – | –
COc1ccc(Cn2c3cc(=O)n(Cc4cccc(C(F)(F)F)n4)c(C)c3c(=O)n2-c2ncc(F)cc2F)cc1 [AVG-392] | 45 µM | 920 nM | 530 nM | 45 µM | 45 µM | – | – | – | – | –
COc1c(F)c(F)c(Cn2c3cc(=O)n(Cc4cccc(C(F)(F)F)n4)c(C)c3c(=O)n2-c2ccccn2)c(F)c1F [AVG-435] | 5 µM | – | – | – | – | 50 mg/kg: −0.44 log 10 | did not observe as much benefit | > 5000 nM | −0.44 log10 TCID50/ml | –
COc1ccc(Cn2c3cc(=O)n(Cc4cccc(C(F)(F)F)n4)c(C)c3c(=O)n2-c2ccccn2)cc1 [AVG-436] | 5 µM | – | – | – | – | 50 mg/kg: −0.89 log 10 | 0.89 (±0.14) log 10 TCID50/ml | > 5000 nM | −0.89 log10 TCID50/ml | –
Cc1c2c(=O)n(-c3ccccn3)n(Cc3c(Cl)cccc3Cl)c2cc(=O)n1Cc1cccc(C(F)(F)F)n1 [AVG-445] | 5 µM | – | – | – | – | 50 mg/kg: −1.1 log 10 | 1.1 (±0.16) log 10 TCID50/ml | > 5000 nM | −1.1 log10 TCID50/ml | in vivo lung titer reduction in RSV-infected mice (recRSV-A2line19F-[mKate]; 100 mg/kg): 100 mg/kg: −1.9 log 10
Cc1c2c(=O)n(-c3ccccn3)n(Cc3c(Cl)cccc3Cl)c2cc(=O)n1Cc1cccc(C(F)(F)F)c1 [AVG-446] | – | – | – | – | – | 50 mg/kg: −0.61 log 10 | – | – | – | CC50 at 48 h [1]: > 5000 nM; in vivo lung titer reduction in RSV-infected mice (recRSV-A2line19F-[mKate]; 100 mg/kg): 100 mg/kg: −1.2 log 10
Cn1nc(C(F)(F)F)cc1C(=O)Nc1ccc(S(=O)(=O)N2CCCC[C@H]2CCN2CCOCC2)cc1 [ERDRP-0519] | – | – | – | – | – | – | – | – | – | phosphodiester bond formation (measles virus polymerase): completely blocks all phosphodiesterbond formation
O=c1nc(NO)ccn1[C@@H]1O[C@H](CO)[C@@H](O)[C@H]1O [NHC, reference compound] | – | – | – | – | – | – | – | – | – | EC50 (recRSV-mKate [5]): 50 nM
